Data: ChEMBL document CHEMBL3885861, “Open TG-GATES”

Organism: Rattus norvegicus
Assay: Open TG-GATES - Regimen: Single
Type: toxicity, organism-based, Sprague-Dawley
Parameters: regimen Single, gender Male, age 6 weeks
Conditions: in vivo, po, route gavage; for Fbg / Hb / Ht / Lym / MCH / MCHC / MCV / Mono / Neu / PT / Plat / RBC / Ret / WBC / APTT / Bas / Eos: tissue Blood; for KIDNEY_L / KIDNEY_R / KIDNEY_TOTAL: tissue Kidney; for LIVER: tissue Liver; for A/G / ALP / ALT / AST / BUN / CRE / Ca / Cl / DBIL / GLC / IP / K / LDH / Na / PL / RALB / TBIL / TC / TG / TP / gamma-GTP: tissue Plasma
[1] = 300 mg/kg, 6 h, dose level Middle
[2] = 300 mg/kg, 9 h, dose level Middle
[3] = 300 mg/kg, 24 h, dose level Middle
[4] = 600 mg/kg, 3 h, dose level High
[5] = 600 mg/kg, 6 h, dose level High
[6] = 600 mg/kg, 9 h, dose level High
[7] = 600 mg/kg, 24 h, dose level High

O=C1CN(/N=C/c2ccc([N+](=O)[O-])o2)C(=O)N1 [NITROFURANTOIN]
Fbg [1]: 235.8 mg/dL | Hb [1]: 13.2 g/dL | Ht [1]: 40% | Lym [1]: 70.6% | MCH [1]: 21.1 pg | MCHC [1]: 33% | MCV [1]: 63.9 fL | Mono [1]: 8% | Neu [1]: 20% | PT [1]: 11.7 s | Plat [1]: 127.7 x10_4/uL | RBC [1]: 625.2 x10_4/ul | Ret [1]: 7.7% | WBC [1]: 80.2 x10_2/uL | KIDNEY_L [1]: 0.9 g | KIDNEY_R [1]: 0.9 g | KIDNEY_TOTAL [1]: 1.9 g | LIVER [1]: 8.7 g | A/G [1]: 2.4 | ALP [1]: 1363.8 IU/L | ALT [1]: 30.6 IU/L | AST [1]: 63.4 IU/L | BUN [1]: 10 mg/dL | CRE [1]: 0.5 mg/dL | Ca [1]: 11.5 mg/dL | Cl [1]: 103.8 meq/L | DBIL [1]: 0.004 mg/dL | GLC [1]: 192.4 mg/dL | IP [1]: 9.1 mg/dL | K [1]: 4.2 meq/L | LDH [1]: 69 IU/L | Na [1]: 137.2 meq/L | PL [1]: 158.2 mg/dL | RALB [1]: 4.1 g/dL | TBIL [1]: 0.036 mg/dL | TC [1]: 113 mg/dL | TG [1]: 36.2 mg/dL | TP [1]: 5.8 g/dL | gamma-GTP [1]: 0.2 IU/L | TERMINAL_BW [2]: 204.4 g | APTT [2]: 17 s | Bas [2]: 0% | Eos [2]: 1.2% | Fbg [2]: 234.8 mg/dL | Hb [2]: 13.3 g/dL | Ht [2]: 40.4% | Lym [2]: 70.6% | MCH [2]: 21.5 pg | MCHC [2]: 33% | MCV [2]: 64.9 fL | Mono [2]: 7.8% | Neu [2]: 20.6% | PT [2]: 11.7 s | Plat [2]: 116.3 x10_4/uL | RBC [2]: 622.6 x10_4/ul | Ret [2]: 6.4% | WBC [2]: 62.7 x10_2/uL | KIDNEY_L [2]: 0.9 g | KIDNEY_R [2]: 1 g | KIDNEY_TOTAL [2]: 1.9 g | LIVER [2]: 8.9 g | A/G [2]: 2.2 | ALP [2]: 1126.4 IU/L | ALT [2]: 29.6 IU/L | AST [2]: 59.4 IU/L | BUN [2]: 12.4 mg/dL | CRE [2]: 0.4 mg/dL | Ca [2]: 11.4 mg/dL | Cl [2]: 106 meq/L | DBIL [2]: 0.008 mg/dL | GLC [2]: 210 mg/dL | IP [2]: 8.5 mg/dL | K [2]: 4.4 meq/L | LDH [2]: 61.8 IU/L | Na [2]: 138.6 meq/L | PL [2]: 143.8 mg/dL | RALB [2]: 4 g/dL | TBIL [2]: 0.038 mg/dL | TC [2]: 88.6 mg/dL | TG [2]: 62.8 mg/dL | TP [2]: 5.9 g/dL | gamma-GTP [2]: 1 IU/L | TERMINAL_BW [3]: 197.5 g | APTT [3]: 16 s | Bas [3]: 0% | Eos [3]: 1.6% | Fbg [3]: 229.2 mg/dL | Hb [3]: 13.8 g/dL | Ht [3]: 42.2% | Lym [3]: 82% | MCH [3]: 21.3 pg | MCHC [3]: 32.6% | MCV [3]: 65.3 fL | Mono [3]: 4.2% | Neu [3]: 12.2% | PT [3]: 11.6 s | Plat [3]: 128 x10_4/uL | RBC [3]: 647 x10_4/ul | Ret [3]: 6.2% | WBC [3]: 69.5 x10_2/uL | KIDNEY_L [3]: 1 g | KIDNEY_R [3]: 1 g | KIDNEY_TOTAL [3]: 2.1 g | LIVER [3]: 8.1 g | A/G [3]: 2.2 | ALP [3]: 1379.2 IU/L | ALT [3]: 32.6 IU/L | AST [3]: 62.6 IU/L | BUN [3]: 15.4 mg/dL | CRE [3]: 0.4 mg/dL | Ca [3]: 11.1 mg/dL | Cl [3]: 107.8 meq/L | DBIL [3]: 0.01 mg/dL | GLC [3]: 194.2 mg/dL | IP [3]: 9.1 mg/dL | K [3]: 4.6 meq/L | LDH [3]: 73.4 IU/L | Na [3]: 140.8 meq/L | PL [3]: 150.8 mg/dL | RALB [3]: 3.8 g/dL | TBIL [3]: 0.028 mg/dL | TC [3]: 85.8 mg/dL | TG [3]: 118.6 mg/dL | TP [3]: 5.6 g/dL | gamma-GTP [3]: 0 IU/L | TERMINAL_BW [4]: 206.4 g | APTT [4]: 16.4 s | Bas [4]: 0% | Eos [4]: 1% | Fbg [4]: 233.2 mg/dL | Hb [4]: 13.2 g/dL | Ht [4]: 40.3% | Lym [4]: 71% | MCH [4]: 21.1 pg | MCHC [4]: 32.8% | MCV [4]: 64.4 fL | Mono [4]: 6.4% | Neu [4]: 22.4% | PT [4]: 12.1 s | Plat [4]: 121.3 x10_4/uL | RBC [4]: 625.6 x10_4/ul | Ret [4]: 7.8% | WBC [4]: 72.9 x10_2/uL | KIDNEY_L [4]: 0.9 g | KIDNEY_R [4]: 1 g | KIDNEY_TOTAL [4]: 1.9 g | LIVER [4]: 8.8 g | A/G [4]: 2.2 | ALP [4]: 1226.6 IU/L | ALT [4]: 36 IU/L | AST [4]: 64.4 IU/L | BUN [4]: 12 mg/dL | CRE [4]: 0.5 mg/dL | Ca [4]: 11.6 mg/dL | Cl [4]: 104 meq/L | DBIL [4]: 0 mg/dL | GLC [4]: 198.4 mg/dL | IP [4]: 10.1 mg/dL | K [4]: 4 meq/L | LDH [4]: 91.2 IU/L | Na [4]: 139.6 meq/L | PL [4]: 146 mg/dL | RALB [4]: 4.1 g/dL | TBIL [4]: 0.034 mg/dL | TC [4]: 90.8 mg/dL | TG [4]: 54.8 mg/dL | TP [4]: 5.9 g/dL | gamma-GTP [4]: 1 IU/L | TERMINAL_BW [5]: 204.9 g | APTT [5]: 16 s | Bas [5]: 0% | Eos [5]: 1% | Fbg [5]: 228.8 mg/dL | Hb [5]: 13.7 g/dL | Ht [5]: 41.9% | Lym [5]: 74.8% | MCH [5]: 20.9 pg | MCHC [5]: 32.8% | MCV [5]: 63.9 fL | Mono [5]: 5.8% | Neu [5]: 18.6% | PT [5]: 11.8 s | Plat [5]: 115.3 x10_4/uL | RBC [5]: 656.6 x10_4/ul | Ret [5]: 7.9% | WBC [5]: 63.6 x10_2/uL | KIDNEY_L [5]: 0.9 g | KIDNEY_R [5]: 0.9 g | KIDNEY_TOTAL [5]: 1.9 g | LIVER [5]: 8.7 g | A/G [5]: 2.4 | ALP [5]: 1281.4 IU/L | ALT [5]: 34.6 IU/L | AST [5]: 64.4 IU/L | BUN [5]: 12.6 mg/dL | CRE [5]: 0.5 mg/dL | Ca [5]: 11.5 mg/dL | Cl [5]: 104.2 meq/L | DBIL [5]: 0.008 mg/dL | GLC [5]: 193 mg/dL | IP [5]: 9 mg/dL | K [5]: 4.3 meq/L | LDH [5]: 74.4 IU/L | Na [5]: 137.8 meq/L | PL [5]: 144.2 mg/dL | RALB [5]: 4.1 g/dL | TBIL [5]: 0.04 mg/dL | TC [5]: 99.6 mg/dL | TG [5]: 33 mg/dL | TP [5]: 5.8 g/dL | gamma-GTP [5]: 0 IU/L | TERMINAL_BW [6]: 205.1 g | APTT [6]: 16.6 s | Bas [6]: 0% | Eos [6]: 1% | Fbg [6]: 229 mg/dL | Hb [6]: 13.5 g/dL | Ht [6]: 41.1% | Lym [6]: 71.4% | MCH [6]: 21.2 pg | MCHC [6]: 32.9% | MCV [6]: 64.6 fL | Mono [6]: 8% | Neu [6]: 19.8% | PT [6]: 11.7 s | Plat [6]: 127.2 x10_4/uL | RBC [6]: 636.6 x10_4/ul | Ret [6]: 7.2% | WBC [6]: 77 x10_2/uL | KIDNEY_L [6]: 1 g | KIDNEY_R [6]: 0.9 g | KIDNEY_TOTAL [6]: 1.9 g | LIVER [6]: 8.9 g | A/G [6]: 2.3 | ALP [6]: 1100.8 IU/L | ALT [6]: 28.6 IU/L | AST [6]: 59.4 IU/L | BUN [6]: 12.6 mg/dL | CRE [6]: 0.4 mg/dL | Ca [6]: 11.3 mg/dL | Cl [6]: 104.2 meq/L | DBIL [6]: 0.01 mg/dL | GLC [6]: 194 mg/dL | IP [6]: 9.2 mg/dL | K [6]: 4.4 meq/L | LDH [6]: 82.6 IU/L | Na [6]: 137.4 meq/L | PL [6]: 160.4 mg/dL | RALB [6]: 4.1 g/dL | TBIL [6]: 0.042 mg/dL | TC [6]: 104.4 mg/dL | TG [6]: 46 mg/dL | TP [6]: 5.9 g/dL | gamma-GTP [6]: 1 IU/L | TERMINAL_BW [7]: 201.7 g | APTT [7]: 16.3 s | Bas [7]: 0% | Eos [7]: 1.6% | Fbg [7]: 238 mg/dL | Hb [7]: 13.7 g/dL | Ht [7]: 41.6% | Lym [7]: 78.8% | MCH [7]: 21.2 pg | MCHC [7]: 33% | MCV [7]: 64.4 fL | Mono [7]: 8.2% | Neu [7]: 11.8% | PT [7]: 11.8 s | Plat [7]: 131.1 x10_4/uL | RBC [7]: 647 x10_4/ul | Ret [7]: 6.5% | WBC [7]: 54.6 x10_2/uL | KIDNEY_L [7]: 1 g | KIDNEY_R [7]: 1 g | KIDNEY_TOTAL [7]: 1.9 g | LIVER [7]: 8.3 g | A/G [7]: 2.2 | ALP [7]: 1073.2 IU/L | ALT [7]: 21.4 IU/L | AST [7]: 54.8 IU/L | BUN [7]: 11.4 mg/dL | CRE [7]: 0.5 mg/dL | Ca [7]: 11.4 mg/dL | Cl [7]: 108 meq/L | DBIL [7]: 0.01 mg/dL | GLC [7]: 170.2 mg/dL | IP [7]: 8.9 mg/dL | K [7]: 4.1 meq/L | LDH [7]: 91.2 IU/L | Na [7]: 140.2 meq/L | PL [7]: 138.4 mg/dL | RALB [7]: 4 g/dL | TBIL [7]: 0.04 mg/dL | TC [7]: 95.6 mg/dL | TG [7]: 42.6 mg/dL | TP [7]: 5.9 g/dL | gamma-GTP [7]: 0 IU/L
